The results in this text go back to patent US20240384268A1, “Oligonucleotides” (Hudson Institute of Medical Research, priority 2021, published 2024).

In the oligonucleotide strings, read from the 5' end, every base follows the letter of its sugar. An asterisk marks phosphorothioate; unmarked linkages are phosphodiester. Other units and linkages are bracketed, terminal groups are in braces. A string of capitals states the bases alone. d = 2'-deoxy (DNA); m = 2'-O-methyl

In this data set the target is T1, human TLR7 (Homo sapiens, UniProt Q9NYK1).
T1 construct: HA; host or cells: 293XL-hTLR7-HA (HEK293)
T1 sequence (Q9NYK1 27-1049): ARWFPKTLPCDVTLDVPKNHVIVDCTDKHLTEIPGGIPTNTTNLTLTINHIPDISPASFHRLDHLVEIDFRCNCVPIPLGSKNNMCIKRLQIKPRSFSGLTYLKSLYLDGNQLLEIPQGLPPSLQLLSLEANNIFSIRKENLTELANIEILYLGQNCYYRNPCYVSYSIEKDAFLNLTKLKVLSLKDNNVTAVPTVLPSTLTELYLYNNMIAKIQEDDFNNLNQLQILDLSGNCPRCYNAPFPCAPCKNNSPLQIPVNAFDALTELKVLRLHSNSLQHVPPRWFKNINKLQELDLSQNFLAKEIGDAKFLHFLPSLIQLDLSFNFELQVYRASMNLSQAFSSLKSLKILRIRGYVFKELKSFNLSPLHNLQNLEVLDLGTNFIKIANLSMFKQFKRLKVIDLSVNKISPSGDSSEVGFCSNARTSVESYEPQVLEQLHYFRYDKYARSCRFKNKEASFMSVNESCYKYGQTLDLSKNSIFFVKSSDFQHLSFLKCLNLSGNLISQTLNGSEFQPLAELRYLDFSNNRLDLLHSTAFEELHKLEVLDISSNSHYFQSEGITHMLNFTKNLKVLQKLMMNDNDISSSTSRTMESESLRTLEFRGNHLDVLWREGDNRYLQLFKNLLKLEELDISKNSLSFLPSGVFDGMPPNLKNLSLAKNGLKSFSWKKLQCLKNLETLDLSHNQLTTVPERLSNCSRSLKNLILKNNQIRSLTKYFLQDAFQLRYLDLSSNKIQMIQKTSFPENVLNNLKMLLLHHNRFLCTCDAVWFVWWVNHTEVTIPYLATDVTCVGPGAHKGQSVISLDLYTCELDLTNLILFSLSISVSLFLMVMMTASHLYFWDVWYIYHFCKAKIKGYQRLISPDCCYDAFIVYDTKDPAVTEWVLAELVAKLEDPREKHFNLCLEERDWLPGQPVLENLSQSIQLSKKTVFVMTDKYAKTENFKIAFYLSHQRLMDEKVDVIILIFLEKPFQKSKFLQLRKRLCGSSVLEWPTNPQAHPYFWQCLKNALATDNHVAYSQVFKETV
Nature of the data set: HEK-TLR7 NF-κB-luciferase reporter, R848 stimulation. The following applies: HEK-TLR7; 100 nM ASO; percentage of R848 without ASO (Alharbi et al., 2020). Type of data set: cell-based. For orientation: Reporter assays use an easily measured gene product as a stand-in for the process of interest.
Consider “mU*mU*mA*mA*mA*T*A*A*T*C*T*A*G*T*T*mU*mG*mA*mA*mG (UUAAATAATCTAGTTUGAAG; sugars from the 5' end m5 d10 m5, all phosphorothioate, methylation of C not given here) [[CDKN2B-AS1]132]”, for which the “TLR7-100 nM: averaged NF-κB-Luciferase relative to R848” value was determined as 25.66%. With “mU*mU*mA*mG*mC*T*C*C*T*T*G*C*C*T*C*mG*mU*mU*mC*mC (mU*mU*mA*mG*mC*dT*dC*dC*dT*dT*dG*dC*dC*dT*dC*mG*mU*mU*mC*mC; antisense) [[LINC-PINT] 1222]” the figure was 31.67%; with “mU*mU*mC*mU*mC*T*C*T*G*G*T*C*C*C*A*mU*mC*mC*mC*mU (mU*mU*mC*mU*mC*dT*dC*dT*dG*dG*dT*dC*dC*dC*dA*mU*mC*mC*mC*mU; antisense) [[LINC-PINT]111]”, 26.22%. With “mU*mU*mG*mG*mC*C*T*G*T*G*G*A*T*G*C*mU*mU*mU*mG*mU (mU*mU*mG*mG*mC*dC*dT*dG*dT*dG*dG*dA*dT*dG*dC*mU*mU*mU*mG*mU) [[LINC-PINT]2673.1]” the figure was 21.43%. For “mU*mU*mG*mU*mG*A*A*A*A*G*A*T*T*A*T*mC*mU*mU*mC*mU (mU*mU*mG*mU*mG*dA*dA*dA*dA*dG*dA*dT*dT*dA*dT*mC*mU*mU*mC*mU) [[CDKN2B-AS1]2138]” the value was 35.02%.

For the substance “mU*mU*mU*mG*mA*A*A*T*T*C*A*G*A*A*G*mA*mU*mU*mU*mG (mU*mU*mU*mG*mA*dA*dA*dT*dT*dC*dA*dG*dA*dA*dG*mA*mU*mU*mU*mG) [[LINC PINT|2690]”, the “TLR7-100 nM: averaged NF-κB-Luciferase relative to R848” value was determined as 35.07%.
